Experimental data reported in patent US10793564B2, “Amino acid compounds and methods of use” (Pliant Therapeutics, Inc., priority 2018, dated 2020).

The molecules below were run against recombinant human integrin αVβ6 (Homo sapiens (Human), UniProt P06756+P18564) (assay: Solid phase integrin αVβ6 binding assay). Settings: inhibition of recombinant TGFβ1 LAP binding to coated integrin, IC50 presented in four ranges, read-out: αvβ6 Inhibition IC50 (nM) - range.
Method: (§1) Microplates were coated with recombinant human integrin αVβ6 (2 μg/mL) in PBS (100 μL/well 25° C., overnight). The coating solution was removed, washed with wash buffer (0.05% Tween 20; 0.5 mM MnCl2; in 1×TBS). The plate was blocked with 200 μL/well of Block Buffer (1% BSA; 5% sucrose; 0.5 mM MnCl2; in 1×TBS) at 37° C. for 2 h. Dilutions of testing compounds and recombinant TGFβ1 LAP (0.67 μg/mL) in binding buffer (0.05% BSA; 2.5% sucrose; 0.5 mM MnCl2; in 1×TBS) were added. The plate was incubated for 2 hours at 25° C., washed, and incubated for 1 hour with Biotin-Anti-hLAP. Bound antibody was detected by peroxidase-conjugated streptavidin. The IC50 values for testing compounds were calculated by a four-parameter logistic regression.
The compounds tested were compound samples prepared according to procedures described in the Synthetic Examples section, with the stereochemical purity as indicated in the Examples.
as §1, with “A third series of exemplary compounds was selected for testing in the solid phase integrin αVβ6 binding assay. The compounds tested were compound samples prepared according to procedures described in the Synthetic Examples section, with the stereochemical purity as indicated in the Examples. As in Example B1, microplates were” for “Microplates were”, “(0.67 g/mL)” for “(0.67 μg/mL)”

Sequence of recombinant human integrin αVβ6 (P06756 31-992): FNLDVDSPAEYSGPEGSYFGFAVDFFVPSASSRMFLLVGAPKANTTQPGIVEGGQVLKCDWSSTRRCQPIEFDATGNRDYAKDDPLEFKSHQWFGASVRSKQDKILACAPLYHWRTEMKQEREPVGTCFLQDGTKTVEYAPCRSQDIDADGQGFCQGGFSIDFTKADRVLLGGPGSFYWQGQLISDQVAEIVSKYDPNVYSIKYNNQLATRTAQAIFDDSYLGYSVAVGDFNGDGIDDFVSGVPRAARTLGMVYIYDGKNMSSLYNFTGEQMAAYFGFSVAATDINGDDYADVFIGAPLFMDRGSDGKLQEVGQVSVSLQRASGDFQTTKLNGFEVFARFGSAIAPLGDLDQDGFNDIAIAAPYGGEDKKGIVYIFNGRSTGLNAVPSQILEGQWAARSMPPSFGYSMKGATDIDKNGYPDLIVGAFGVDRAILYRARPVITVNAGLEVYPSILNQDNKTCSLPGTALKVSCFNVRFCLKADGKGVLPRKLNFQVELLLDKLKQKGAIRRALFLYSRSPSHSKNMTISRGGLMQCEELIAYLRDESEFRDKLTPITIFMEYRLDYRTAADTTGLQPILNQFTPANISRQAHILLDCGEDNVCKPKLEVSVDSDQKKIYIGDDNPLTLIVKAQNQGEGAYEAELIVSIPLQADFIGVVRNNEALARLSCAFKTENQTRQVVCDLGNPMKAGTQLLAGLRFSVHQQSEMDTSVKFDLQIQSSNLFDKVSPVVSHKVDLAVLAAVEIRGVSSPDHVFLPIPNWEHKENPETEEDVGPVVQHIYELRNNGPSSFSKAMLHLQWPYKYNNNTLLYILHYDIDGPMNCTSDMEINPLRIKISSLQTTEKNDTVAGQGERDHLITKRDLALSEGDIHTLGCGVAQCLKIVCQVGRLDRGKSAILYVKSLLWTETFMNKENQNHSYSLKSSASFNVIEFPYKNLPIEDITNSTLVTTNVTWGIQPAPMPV
Sequence of recombinant human integrin αVβ6 (P18564 22-707): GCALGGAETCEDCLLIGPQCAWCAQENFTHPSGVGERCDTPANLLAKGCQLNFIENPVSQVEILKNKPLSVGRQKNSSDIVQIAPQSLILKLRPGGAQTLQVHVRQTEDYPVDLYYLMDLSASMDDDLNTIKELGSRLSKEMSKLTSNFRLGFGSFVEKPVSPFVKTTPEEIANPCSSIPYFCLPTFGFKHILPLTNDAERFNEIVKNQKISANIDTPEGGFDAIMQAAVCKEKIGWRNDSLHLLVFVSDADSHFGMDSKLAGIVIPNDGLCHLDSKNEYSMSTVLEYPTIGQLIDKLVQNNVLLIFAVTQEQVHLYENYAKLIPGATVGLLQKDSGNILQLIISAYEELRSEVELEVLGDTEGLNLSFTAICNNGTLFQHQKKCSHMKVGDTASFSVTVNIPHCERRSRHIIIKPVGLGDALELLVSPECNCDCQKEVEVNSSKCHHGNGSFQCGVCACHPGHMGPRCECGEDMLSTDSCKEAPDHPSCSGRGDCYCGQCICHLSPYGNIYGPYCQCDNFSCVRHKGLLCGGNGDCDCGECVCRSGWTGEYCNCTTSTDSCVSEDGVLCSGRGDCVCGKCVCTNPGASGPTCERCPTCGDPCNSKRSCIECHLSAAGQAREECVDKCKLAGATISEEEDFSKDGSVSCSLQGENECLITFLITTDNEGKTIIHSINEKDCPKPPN

IC50 [nM] | Compound
< 50 | Cc1nc(N[C@@H](CCN(CCCCc2ccc3c(n2)NCCC3)CCOc2cccnc2C)C(=O)O)c2ccc(F)cc2n1 [Compound 53, (S)-2-((7-fluoro-2-methylquinazolin-4-yl)amino)-4-((2-((2-methylpyridin-3-yl)oxy)ethyl) (4-(5,6,7,8-tetrahydro-1,8-naphthyridin-2-yl)butyl)amino) butanoic Acid]
< 50 | Cc1ncccc1OCCN(CCCCc1ccc2c(n1)NCCC2)CC[C@H](Nc1ncnc2cccnc12)C(=O)O [Compound 54, (S)-4-((2-((2-methylpyridin-3-yl)oxy)ethyl) (4-(5,6,7,8-tetrahydro-1,8-naphthyridin-2-yl)butyl)amino)-2-(pyrido[3,2-d]pyrimidin-4-ylamino) butanoic Acid]
< 50 | CCOCCN(CCCCc1ccc2c(n1)NCCC2)CC[C@H](Nc1ncnc2ccccc12)C(=O)O [Compound 55, (S)-4-((2-ethoxyethyl) (4-(5,6,7,8-tetrahydro-1,8-naphthyridin-2-yl)butyl)amino)-2-(quinazolin-4-ylamino) butanoic Acid]
< 50 | Cc1ccc(OCCN(CCCCc2ccc3c(n2)NCCC3)CC[C@H](Nc2nc(C)nc3cc(F)ccc23)C(=O)O)cn1 [Compound 56, (S)-2-((7-fluoro-2-methylquinazolin-4-yl)amino)-4-((2-((6-methylpyridin-3-yl)oxy)ethyl) (4-(5,6,7,8-tetrahydro-1,8-naphthyridin-2-yl)butyl)amino) butanoic Acid]
< 50 | Cc1ccc(OCCN(CCCCc2ccc3c(n2)NCCC3)CC[C@H](Nc2ncnc3cccnc23)C(=O)O)cn1 [Compound 57, (S)-4-((2-((6-methylpyridin-3-yl)oxy)ethyl) (4-(5,6,7,8-tetrahydro-1,8-naphthyridin-2-yl)butyl)amino)-2-(pyrido[3,2-d]pyrimidin-4-ylamino) butanoic Acid]
< 50 | O=C(O)[C@H](CCN(CCCCc1ccc2c(n1)NCCC2)CCOc1cncc(F)c1)Nc1ncnc2ccccc12 [Compound 58, (S)-4-((2-((5-fluoropyridin-3-yl)oxy)ethyl) (4-(5,6,7,8-tetrahydro-1,8-naphthyridin-2-yl)butyl)amino)-2-(quinazolin-4-ylamino) butanoic Acid]
< 50 | Cc1ccc(OCCN(CCCCc2ccc3c(n2)NCCC3)CC[C@H](Nc2ncnc3ccccc23)C(=O)O)cn1 [Compound 59, (S)-4-((2-((6-methylpyridin-3-yl)oxy)ethyl) (4-(5,6,7,8-tetrahydro-1,8-naphthyridin-2-yl)butyl)amino)-2-(quinazolin-4-ylamino) butanoic Acid]
< 50 | O=C(O)[C@H](CCN(CCCCc1ccc2c(n1)NCCC2)CCOc1cncc(F)c1)Nc1ncnc2cccnc12 [Compound 60, (S)-4-((2-((5-fluoropyridin-3-yl)oxy)ethyl) (4-(5,6,7,8-tetrahydro-1,8-naphthyridin-2-yl)butyl)amino)-2-(pyrido[3,2-d]pyrimidin-4-ylamino) butanoic Acid]
< 50 | Cc1nc(N[C@@H](CCN(CCCCc2ccc3c(n2)NCCC3)CCOc2cncc(F)c2)C(=O)O)c2ccc(F)cc2n1 [Compound 61, (S)-2-((7-fluoro-2-methylquinazolin-4-yl)amino)-4-((2-((5-fluoropyridin-3-yl)oxy)ethyl) (4-(5,6,7,8-tetrahydro-1,8-naphthyridin-2-yl)butyl)amino) butanoic Acid]
< 50 | CO[C@H](C)CN(CCCCc1ccc2c(n1)NCCC2)CC[C@H](Nc1ncnc2ccccc12)C(=O)O [Compound 62, (S)-4-(((R)-2-methoxypropyl) (4-(5,6,7,8-tetrahydro-1,8-naphthyridin-2-yl)butyl)amino)-2-(quinazolin-4-ylamino) butanoic Acid]
< 50 | CC(=O)NCCN(CCCCc1ccc2c(n1)NCCC2)CC[C@H](Nc1ncnc2ccccc12)C(=O)O [Compound 63, (S)-4-((2-acetamidoethyl) (4-(5,6,7,8-tetrahydro-1,8-naphthyridin-2-yl)butyl)amino)-2-(quinazolin-4-ylamino) butanoic Acid]
< 50 | CN(C)C(=O)CN(CCCCc1ccc2c(n1)NCCC2)CC[C@H](Nc1ncnc2ccccc12)C(=O)O [Compound 64, (S)-4-((2-(dimethylamino)-2-oxoethyl) (4-(5,6,7,8-tetrahydro-1,8-naphthyridin-2-yl)butyl)amino)-2-(quinazolin-4-ylamino) butanoic Acid]
< 50 | CO[C@H](C)CN(CCCCc1ccc2c(n1)NCCC2)CC[C@H](Nc1nc(C)nc2cc(F)ccc12)C(=O)O [Compound 65, (S)-2-((7-fluoro-2-methylquinazolin-4-yl)amino)-4-(((R)-2-methoxypropyl) (4-(5,6,7,8-tetrahydro-1,8-naphthyridin-2-yl)butyl)amino) butanoic Acid]
< 50 | CO[C@H](C)CN(CCCCc1ccc2c(n1)NCCC2)CC[C@H](Nc1nc(C)nc2ccccc12)C(=O)O [Compound 66, (S)-4-(((R)-2-methoxypropyl) (4-(5,6,7,8-tetrahydro-1,8-naphthyridin-2-yl)butyl)amino)-2-((2-methylquinazolin-4-yl)amino) butanoic Acid]
< 50 | COCCN(CCCCc1ccc2c(n1)NCCC2)CC[C@H](Nc1nccnc1C#N)C(=O)O [Compound 67, (S)-2-((3-cyanopyrazin-2-yl)amino)-4-((2-methoxyethyl) (4-(5,6,7,8-tetrahydro-1,8-naphthyridin-2-yl)butyl)amino) butanoic Acid]
< 50 | CO[C@H](C)CN(CCCCc1ccc2c(n1)NCCC2)CC[C@H](Nc1ncc(C#N)cn1)C(=O)O [Compound 68, (S)-2-((5-cyanopyrimidin-2-yl)amino)-4-(((R)-2-methoxypropyl) (4-(5,6,7,8-tetrahydro-1,8-naphthyridin-2-yl)butyl)amino) butanoic Acid]
< 50 | CO[C@H](C)CN(CCCCc1ccc2c(n1)NCCC2)CC[C@H](Nc1ncc(C(F)(F)F)cn1)C(=O)O [Compound 69, (S)-4-(((R)-2-methoxypropyl) (4-(5,6,7,8-tetrahydro-1,8-naphthyridin-2-yl)butyl)amino)-2-((5-(trifluoromethyl)pyrimidin-2-yl)amino) butanoic Acid]
< 50 | CO[C@H](C)CN(CCCCc1ccc2c(n1)NCCC2)CC[C@H](Nc1ncc(Br)cn1)C(=O)O [Compound 70, (S)-2-((5-bromopyrimidin-2-yl)amino)-4-(((R)-2-methoxypropyl) (4-(5,6,7,8-tetrahydro-1,8-naphthyridin-2-yl)butyl)amino) butanoic Acid]
< 50 | CO[C@H](C)CN(CCCCc1ccc2c(n1)NCCC2)CC[C@H](Nc1ncnc2[nH]ncc12)C(=O)O [Compound 71, (S)-2-((1H-pyrazolo[3,4-d]pyrimidin-4-yl)amino)-4-(((R)-2-methoxypropyl) (4-(5,6,7,8-tetrahydro-1,8-naphthyridin-2-yl)butyl)amino) butanoic Acid]
< 50 | CO[C@H](C)CN(CCCCc1ccc2c(n1)NCCC2)CC[C@H](Nc1ccnc(C(F)(F)F)n1)C(=O)O [Compound 72, (S)-4-(((R)-2-methoxypropyl) (4-(5,6,7,8-tetrahydro-1,8-naphthyridin-2-yl)butyl)amino)-2-((2-(trifluoromethyl)pyrimidin-4-yl)amino) butanoic Acid]
< 50 | CO[C@H](C)CN(CCCCc1ccc2c(n1)NCCC2)CC[C@H](Nc1ccnc(-c2ccccc2)n1)C(=O)O [Compound 73, (S)-4-(((R)-2-methoxypropyl) (4-(5,6,7,8-tetrahydro-1,8-naphthyridin-2-yl)butyl)amino)-2-((2-phenylpyrimidin-4-yl)amino) butanoic Acid]
< 50 | CO[C@H](C)CN(CCCCc1ccc2c(n1)NCCC2)CC[C@H](Nc1ncnc2c1cnn2C)C(=O)O [Compound 74, (S)-4-(((R)-2-methoxypropyl) (4-(5,6,7,8-tetrahydro-1,8-naphthyridin-2-yl)butyl)amino)-2-((1-methyl-1H-pyrazolo[3,4-d]pyrimidin-4-yl)amino) butanoic Acid]
< 50 | O=C(O)[C@H](CCN(CCO)CCCCc1ccc2c(n1)NCCC2)Nc1ncnc2ccccc12 [Compound 75, (S)-4-((2-hydroxyethyl) (4-(5,6,7,8-tetrahydro-1,8-naphthyridin-2-yl)butyl)amino)-2-(quinazolin-4-ylamino) butanoic Acid]
< 50 | CO[C@H](C)CN(CCCCc1ccc2c(n1)NCCC2)CC[C@H](Nc1nccnc1C#N)C(=O)O [Compound 76, (S)-2-((3-cyanopyrazin-2-yl)amino)-4-(((R)-2-methoxypropyl) (4-(5,6,7,8-tetrahydro-1,8-naphthyridin-2-yl)butyl)amino) butanoic Acid]
